In patent US11116732B2, “Carotenoid-containing cognitive function improving composition for use in exercise therapy for improving cognitive function” (ASTAREAL CO., LTD., priority 2016, dated 2021):

Key:
[1] = system: adult hippocampal neurogenesis (hippocampal dentate gyrus); experiment: Adult hippocampal neurogenesis (AHN): immunohistochemical count of Ki67+, BrdU+ and BrdU+/NeuN+ cells after 4 weeks of ASX uptake with or without low intensity exercise; format: in vivo, mouse; conditions: for number of newly matured cells (BrdU+/NeuN+), rate of change relative to the CON group / number of proliferating cells (Ki67+), rate of change relative to the CON group / number of viable cells (BrdU+), rate of change relative to the CON group: 4 weeks
Excerpt: (§1) For the purpose of clarifying whether or not hippocampal function improving effect is enhanced by low intensity exercise, influence of combined use of low intensity exercise (7 m/min) of VT or less and ASX uptake (0.5% by weight) on AHN and spatial cognitive function was investigated.
(§2) All the mice used in this experiment were divided so that the weight was equalized at the preliminary breeding end point. These were divided into four groups of placebo+rest (CON), placebo+low intensity exercise (ME), 0.5% ASX uptake+rest (ASX), and the low intensity exercise+0.5% ASX uptake (ME+ASX) (FIG. 5). Mice were bred each one per a cage.
0.5% ASX uptake or placebo uptake was carried out.
The mice in the low intensity exercise group imposed a treadmill running exercise of 7 m/min for 30 minutes a day. Also, the mice in the rest group were placed on the treadmill for equal time with the running exercise training and were not allowed to exercise anything (control experiment). For the running exercise training, a treadmill for small animals (KN-73, Natsume, Japan) was used. In either of the groups, training or control experiment was imposed once a day in the dark period, which became active for mice.
BrdU (bromodeoxyuridine) is taken up as an analog molecule of thymidine into the cell nucleus at the S phase of the cell cycle and is used to evaluate cell division, proliferation, and subsequent survival. Thus, BrdU (100 mg/kg BW) was intraperitoneally administered to all mice during three days before starting running exercise and 0.5% ASX uptake (FIG. 5). Administration was carried out only once a day (AM8:00).
Immunohistochemical staining method is a method of labeling and visualizing a target DNA or protein on a tissue utilizing an antigen antibody reaction. In visualization, it is carried out by labelling an enzyme or a fluorescent substance, etc., which is a substance to be a marker, to an antibody which bounds to an antigen, and reacting with the marker to colorize the antibody adhered portion. In this experiment, fluorescent antibody method was used for evaluation of proliferating cells, viable cells and newly matured neurons.
In this experiment, BrdU was identified for the evaluation of neoplastic cells. For identification, rat anti-BrdU antibody (Rat anti-BrdU, AbD Serotec) was used as a primary antibody and CyTM3 donkey anti-rat IgG antibody (Cy3 Donkey Anti-Rat IgG, JACKSON) was used as a secondary antibody to fluorescently label with red color and visualized. In addition, for identification of mature neurons, mouse anti-NeuN antibody (Mouse Anti-Neuronal Nuclei monoclonal antibody, Chemicon) was used as a primary antibody, and for visualization, a fluorescently labeled secondary antibody AMCA donkey anti-mouse IgG antibody (AMCA Donkey Anti-Mouse IgG, JACKSON) was used and stained to blue color.
According to this procedure, newly matured cells were evaluated by BrdU+/NeuN+ reaction (red+bluish white). The procedures of the fluorescent antibody method were shown below.
In this experiment, for evaluation of cell proliferation, it was identified by Ki67. For identification, rabbit anti-Ki67 antibody (Rabbit anti-Ki67, Abcam) was used as a primary antibody, and Alexa 555 anti-rabbit IgG antibody (Goat Alexa 555 anti-rabbit IgG, Biotium) was used as a secondary antibody to fluorescently label with red color and visualized. In addition, for identification of the matured neurons, mouse anti-NeuN antibody (Mouse Anti-Neuronal Nuclei monoclonal antibody, Chemicon) was used as a primary antibody, and for visualization, a fluorescently labeled secondary antibody AMCA donkey anti-mouse IgG antibody (AMCA Donkey Anti-Mouse IgG, JACKSON) was used and stained to blue color. According to this procedure, newly matured cells were evaluated by Ki67+/NeuN+reaction (red+bluish white). The procedures of the fluorescent antibody method were shown below.
All data were expressed as an average value±standard error of each sample. […]

[2] = system: neural progenitor cells; conditions: in vitro; cited from earlier work
[3] = system: nerve injury due to epilepsy; conditions: rat, in vivo; cited from earlier work
[4] = system: hippocampal mRNA expression; experiment: Hippocampal mRNA expression by RT-PCR; format: in vivo, mouse
Excerpt: as §2, with “three” for “four”, “(ME),” for “(ME), 0.5% ASX uptake+rest (ASX),”, “and” for “and the”, “(each n=8).” for “(FIG. 5).”
(§3) The brain was removed two days after 4 weeks training and ASX uptake. The hippocampus was fractionated from the collected brain (Hirano M, Rakwal R, Shibato J, Sawa H, Nagashima K, Ogawa Y, Yoshida Y, Iwahashi H, Niki E, Masuo Y. Proteomics- and transcriptomics-based screening of differentially expressed proteins and genes in brain of Wig rat: a model for attention deficit hyperactivity disorder (ADHD) research. J Proteome Res 7: 2471-2489, 2008). The hippocampus was immediately frozen with liquid nitrogen and stored in a freezer at −80° C.
In order to confirm the reproducibility and validity of the molecular mechanism estimated by the microarray and IPA analysis, 12 genes were picked up and the changes in their gene expression were reexamined by RT-PCR.
All data were expressed as an average value±standard error. For statistical processing of RT-PCR, after one-way analysis of variance (One-way ANOVA), the Bonferroni's tests method was used as post-hoc. All the significance levels were set to less than 5%.

[5] = system: spatial learning memory ability; experiment: Morris water maze (MWM): place learning escape training and probe test; format: in vivo, mouse; conditions: for escape time during place learning escape training: P<0.05
Excerpt: as §1, §2
2-11. Evaluation of Spatial Learning Memory Ability: Morris Water Maze (MWM)
Evaluation of spatial learning memory ability was carried out.
Here, in order to clarify whether or not improvement of the hippocampal function due to the low intensity exercise is enhanced by ASX uptake, influence of combined use of the low intensity exercise of VT or less and 0.5% ASX uptake on AHN and spatial learning memory ability was investigated. For the evaluation of AHN, the numbers of proliferating cells (Ki67+), viable cells (BrdU+), and newly matured cells (BrdU+/NeuN+) were counted using immunohistochemical staining method and the result thereof was shown by the rate of change relative to the CON group. Also, the spatial learning memory ability was evaluated using the MWM with regard to acquiring ability (learning) of memory by the place learning escape training for 4 days, and retention and recollection ability of memory by the probe test on the fifth day.

[6] = system: hippocampal gene expression; experiment: Hippocampal gene expression by DNA microarray and IPA network analysis; format: in vivo, mouse
Excerpt: as §2, with “three” for “four”, “(ME),” for “(ME), 0.5% ASX uptake+rest (ASX),”, “and” for “and the”, “(each n=8).” for “(FIG. 5).”
as §3, with “C. […]” for “C.”
3) Hybridization: Samples of fluorescently labeled control group (CON group) and experiment group (ME group, ME+ASX group) are assayed on the same Microarray chip and hybridized with a 60 base pair probe on the slide glass. […] In the program at this time, the color intensity of Cy3 and Cy5 of all the probes was measured. 6) Standardization of data: For standardization of data, LOWESS (locally weighted linear regression) was used, and logarithmic and logarithmic error rates standardized from Cy3 and Cy5 signals were calculated. […]

[7] = in vivo; cited from earlier work
[8] = ASX group compared with the CON group, P<0.05
[9] = ASX group: 0.5% ASX uptake + rest
[10] = ME+ASX group: low intensity exercise (7 m/min) + 0.5% ASX uptake

Igflr (insulin-like growth factor 1 receptor) gene expression (IPA network analysis) ([6]; ME+ASX group only): estimated to enhance
Structure (SMILES): CC1=C(/C=C/C(C)=C/C=C/C(C)=C/C=C/C=C(C)/C=C/C=C(C)/C=C/C2=C(C)C(=O)[C@@H](O)CC2(C)C)C(C)(C)C[C@H](O)C1=O [ASX, astaxanthin]
number of BrdU positive cells [1, 8]: significant increase
number of BrdU/NeuN positive cells [1, 8]: significant increase
number of Ki67 positive cells [1, 8]: significant increase
number of newly matured cells (BrdU+/NeuN+), rate of change relative to the CON group [1, 9]: +46.3%
number of proliferating cells (Ki67+), rate of change relative to the CON group [1, 9]: +16.9%
number of viable cells (BrdU+), rate of change relative to the CON group [1, 9]: +44.9%
effect of the combination of low intensity exercise and ASX uptake on AHN and hippocampal function, against the sum of the ME group and the ASX group ([1]; ME+ASX group): synergistically increases
number of Ki67 positive cells ([1]; ME+ASX group compared with the ME group and the ASX group, P<0.001): significant increase
number of BrdU positive cells ([1]; ME+ASX group compared with the ME group and the ASX group, P<0.05): significant increase
number of newly matured cells (BrdU+/NeuN+), rate of change relative to the CON group [1, 10]: +102.9%
number of proliferating cells (Ki67+), rate of change relative to the CON group [1, 10]: +52.3%
number of viable cells (BrdU+), rate of change relative to the CON group [1, 10]: +95.7%
proliferation of neural progenitor cells [2]: enhances the proliferation of neural progenitor cells
protection against nerve injury due to epilepsy [3]: protect against nerve injury due to epilepsy
mRNA expression of Cxcr4, Stat3, Mapk1 and Jak2 ([4]; ME+ASX group (also in the ME group)): significantly increased
mRNA expression of Psen1, Notch2, Igflr, Igfl, Pi3k and Creb ([4]; only in the ME+ASX group): increased significantly
spatial memory capacity, increase rate for the CON group ([5]; ASX group): 25.9%
result of the MWM ([5]; ASX group, 0.5% ASX uptake): significantly improved
escape time during place learning escape training ([5]; ASX group, fourth day): significant shortening
probe test: ratio of the cumulative time of swimming within the quadrant where the platform existed to the total swimming time [5, 9]: 30.5%
spatial memory capacity, increase rate for the CON group ([5]; ME+ASX group): 60.6%
escape time during place learning escape training ([5]; ME+ASX group compared with the CON, third day): significant shortening
probe test: ratio of the cumulative time of swimming within the quadrant where the platform existed to the total swimming time ([5]; ME+ASX group: low intensity exercise + 0.5% ASX uptake): 39.9%
swimming speed ([5]; among the groups (CON, ME, ASX, ME+ASX)): no significant difference
Lep and Cxcr4 gene expression (IPA network analysis) ([6]; ME+ASX group, similar to the ME group): enhancement
passage through the blood brain barrier [7]: moves through the blood brain barrier into the brain
